Test results as given in patent US9492428B2, “Compounds, compositions, pharmaceutical compositions, and methods of use” (University of Louisville Research Foundation, Inc., priority 2011, dated 2016).
Values after ≈ are worked out from the molar mass of the structure shown.

Key:
DU145 cells = test: MTT assay (cytotoxicity / cell proliferation) in DU145; format: cell-based, human; settings: Homo sapiens, DU-145; MTT assay, FIG. 4; read-out: GI50 against DU145
Experimental: (§1) FIG. 4. Bioassay of compound I-1, compound I-2, and compound I-3. SPA14-3-2 is pure compound I-2. SPA14-3-3 is pure compound I-3. SPA14-3-4 is pure compound I-1. MTT assays using compound I-1, compound I-2, and compound I-3 against DU145 and RWPE-1 cells lines.
FIG. 8. Cell proliferation assay. (A) DU145 or PC3 prostate cancer were plated at a density of 1,500 cells per well in 96-well plates and incubated 18 hours at 37° C. to allow adherence. They were untreated or treated by addition of different concentrations of compound I-1 (which were added directly to the medium) or vehicle (DMSO), and proliferation was measured using a 3-(4,5-dimethylthiazol-2-yl)-2,5-diphenyltetrazolium bromide MTT assay after 3 days of treatment. Points, mean of triplicate normalized samples to vehicle sample; bars, SE. (B) GI50 after 3 days of treatment. (C) Prostate cancer cells (DU145 or PC3) or a non-malignant epithelial cells (RWPE-1) were plated at a density of 1,000 cells per well in 96-well plates and incubated 18 hours at 37° C. to allow adherence. They were untreated or treated by addition of different concentrations of compound I-1 (added directly to the medium) or vehicle (DMSO), and proliferation was by MTT assay after 5 days of treatment. Points, mean of triplicate normalized samples to vehicle sample; bars, SE.
(§2) Isolation, NMR, and X-ray crystallographic analyses. Leaves, stems, and few fruits of Physalis angulate L (Solanaceae) were collected in Rio Domingusa. Kuith/Barranquita, Amazonas Department, Northeastern Peru, and identified by the team led by Walter Lewis (collection voucher 18597, Ext. 1159). Dried and grounded material (46 g) was extracted with ethanol (1 L, 95%) for 7 days. The evaporated crude extract (6.26 g) was denoted SPA. An aliquot (1.5 g) of SPA was partitioned between dichloromethane (40 mL) and water (40 mL), affording two fractions: organic (SPA1, 500 mg) and aqueous (SPA2, 600 mg). All MTT assays were performed as described in Bates et al. “G-Rich Oligonucleotides for Cancer Treatment” Chapter 21 of Methods in Molecular Biology, Gene Therapy of Cancer, Wolfgang Walther and Ulrike S. Stein (eds.), Vol. 542, 2009, Humana Press. […] SPA14-3 (30 mg) was treated on an HPLC using a reverse phase C18 column eluted in gradient mode of methanol and water (from 80% methanol to 100% methanol) and detected at 254 nm, yielding SPA14-3-1 (0 mg), SPA14-3-2 (1.2 mg of pure compound I-2), SPA14-3-3 (4.1 mg of pure compound I-3), and SPA14-3-4 (18 mg of pure compound I-1).
General Experimental Procedure. Compound I-1 was isolated as described in Example Set 1, above. For samples of compound I-1 used in Example Set 2, HPLC and NMR indicated a purity of at least 95%. All experiments described in Example Set 2 were repeated at least two or three times. […]

RWPE-1 cells = test: MTT assay (cytotoxicity) in RWPE-1; format: cell-based; settings: Homo sapiens, FIG. 4, read-out: GI50 against RWPE-1
Text: as §1, §2
General Experimental Procedure. Compound I-1 was isolated as described in Example Set 1, above. For samples of compound I-1 used in Example Set 2, HPLC and NMR indicated a purity of at least 95%. All experiments described in Example Set 2 were repeated at least two or three times. All MTT assays were performed according to Bates et al. “G-Rich Oligonucleotides for Cancer Treatment” Chapter 21 of Methods in Molecular Biology, Gene Therapy of Cancer, Wolfgang Walther and Ulrike S. Stein (eds.), Vol. 542, 2009, Humana Press.

Row | Compound | GI50 (DU145 cells) [µg/mL] | GI50 (RWPE-1 cells) [µg/mL]
1 | CC12C[C@@H]([C@@]34CC[C@@]5(O3)C3C(O4)[C@H]4O[C@]46CC=CC(=O)[C@]6(C)[C@H]3CC[C@@]5(C)O)C(C[C@@]1(C)O)OC2=O (stereo partly shown) [I-2] | 3.4 (≈ 6.79 µM) | 3 (≈ 5.99 µM)
2 | CC12C[C@@H]([C@@]34CC[C@@]5(O3)C3C(O4)[C@H]4O[C@]46CC=CC(=O)[C@]6(C)[C@H]3CC[C@]5(C)O)C(C[C@@]1(C)O)OC2=O (stereo partly shown) [I-3] | 3 (≈ 5.99 µM) | 3.3 (≈ 6.59 µM)
